# In patent US5008419A, “Novel platinum complex” (SS Pharmaceutical Co., Ltd., priority 1988, dated 1991):
# Tests used:
# 50% lethal dose (LD50) = settings: in vivo
# Procedure: (§1) Therapeutic index of compounds of this invention was determined according to the following equation. [formula]
# L1210 leukemia cells = assay: Antitumor activity against L1210 leukemia in CDF1 mice (increase life span, survived ratio); assay type: in vivo, CDF1 male mice; settings: for ILS (increase life span) / Survived ratio: i.p., once a day for 5 days; for ILS50 (50% increase life span dose): mouse, in vivo, ip, 43200 min; for Survived ratio: 30 days observation
# Procedure: CDF1 male mice (age: 6 weeks) consisting of 6 per each group were used to the test. 1×10^5 L1210 leukemia cells were intraperitoneally inoculated into each mouse. Test compounds dissolved in a solution of 0.5% CMC-Na in physiological saline were intraperitoneally administered to mice once a day for 5 consecutive days from the next day of the inoculation. A 0.5% CMC-Na solution in physiological saline was administered to the control group. […] All of these compounds are known compounds and Comparative Compounds a-c were disclosed in U.S. Pat. No. 4,169,846.
# Observation was continued for consecutive 30 days after the administration. Increase life span (ILS) was determined according to the following equation: […]
# wherein T is the mean survival days of the treated groups, and C is the mean survival days of the control groups.
# as §1
# Water solubility = assay type: physicochemical
molecule,measurement,setting,value
"CC1C(=O)[O][Pt]2([NH]C3CCCCC3[NH]2)[O]C1=O (racemic) [Comparative Compound b, (trans-dl-1,2-diaminocyclohexane)methylmalonatoplatinum (II)]",LD50 (50% lethal dose),50% lethal dose (LD50),312.6 mg/kg
same,ILS (increase life span),L1210 leukemia cells; 4.0 mg/kg,17%
same,ILS (increase life span),L1210 leukemia cells; 8.0 mg/kg,27%
same,ILS (increase life span),L1210 leukemia cells; 16.0 mg/kg,43%
same,ILS (increase life span),L1210 leukemia cells; 32.0 mg/kg,79%
same,ILS50 (50% increase life span dose),L1210 leukemia cells,14.9 mg/kg
"CCC1C(=O)[O][Pt]2([NH]C3CCCCC3[NH]2)[O]C1=O (racemic) [Comparative Compound c, (trans-dl-1,2-diaminocyclohexane)ethylmalonatoplatinum (II)]",LD50 (50% lethal dose),50% lethal dose (LD50),244.9 mg/kg
same,ILS (increase life span),L1210 leukemia cells; 4.0 mg/kg,27%
same,ILS (increase life span),L1210 leukemia cells; 8.0 mg/kg,31%
same,ILS (increase life span),L1210 leukemia cells; 16.0 mg/kg,52%
same,ILS (increase life span),L1210 leukemia cells; 32.0 mg/kg,69%
same,ILS50 (50% increase life span dose),L1210 leukemia cells,14.2 mg/kg
N.N.O=C([O-])C1(C(=O)[O-])CCC1.[Pt+2] [Carboplatin],LD50 (50% lethal dose),50% lethal dose (LD50),200.0 mg/kg
same,ILS (increase life span),L1210 leukemia cells; 8.0 mg/kg,27%
same,Survived ratio,L1210 leukemia cells; 8.0 mg/kg,0%
same,ILS (increase life span),L1210 leukemia cells; 16.0 mg/kg,29%
same,Survived ratio,L1210 leukemia cells; 16.0 mg/kg,0%
same,ILS (increase life span),L1210 leukemia cells; 32.0 mg/kg,43%
same,Survived ratio,L1210 leukemia cells; 32.0 mg/kg,0%
same,ILS (increase life span),L1210 leukemia cells; 64.0 mg/kg,70%
same,Survived ratio,L1210 leukemia cells; 64.0 mg/kg,0%
same,ILS (increase life span),L1210 leukemia cells; 128.0 mg/kg,25%
same,Survived ratio,L1210 leukemia cells; 128.0 mg/kg,0%
same,ILS50 (50% increase life span dose),L1210 leukemia cells,31.2 mg/kg
N.N.[Cl][Pt][Cl] [Cisplatin],ILS (increase life span),L1210 leukemia cells; 0.5 mg/kg,19%
same,ILS (increase life span),L1210 leukemia cells; 1.0 mg/kg,33%
same,ILS (increase life span),L1210 leukemia cells; 2.0 mg/kg,75%
same,ILS (increase life span),L1210 leukemia cells; 4.0 mg/kg,88%
same,ILS50 (50% increase life span dose),L1210 leukemia cells,1.3 mg/kg
"(trans-dl-1,2-diaminocyclohexane) diethylmalonatoplatinum (II) [Compound No. 2]",Water solubility,Water solubility,10000 µg/mL
same,LD50 (50% lethal dose),50% lethal dose (LD50),140.0 mg/kg
same,ILS (increase life span),L1210 leukemia cells; 2.0 mg/kg,43%
same,Survived ratio,L1210 leukemia cells; 2.0 mg/kg,0%
same,ILS (increase life span),L1210 leukemia cells; 4.0 mg/kg,61%
same,Survived ratio,L1210 leukemia cells; 4.0 mg/kg,0%
same,ILS (increase life span),L1210 leukemia cells; 8.0 mg/kg,above 135%
same,Survived ratio,L1210 leukemia cells; 8.0 mg/kg,33%
same,ILS (increase life span),L1210 leukemia cells; 16.0 mg/kg,above 124%
same,Survived ratio,L1210 leukemia cells; 16.0 mg/kg,17%
same,ILS (increase life span),L1210 leukemia cells; 32.0 mg/kg,above 168%
same,Survived ratio,L1210 leukemia cells; 32.0 mg/kg,33%
same,ILS50 (50% increase life span dose),L1210 leukemia cells,2.7 mg/kg
"(trans-dl-1,2-diaminocyclohexane) dimethylmalonatoplatinum (II) [Compound No. 1]",Water solubility,Water solubility,8000 µg/mL
same,LD50 (50% lethal dose),50% lethal dose (LD50),140.0 mg/kg
same,ILS (increase life span),L1210 leukemia cells; 2.0 mg/kg,40%
same,Survived ratio,L1210 leukemia cells; 2.0 mg/kg,0%
same,ILS (increase life span),L1210 leukemia cells; 4.0 mg/kg,49%
same,Survived ratio,L1210 leukemia cells; 4.0 mg/kg,0%
same,ILS (increase life span),L1210 leukemia cells; 8.0 mg/kg,above 136%
same,Survived ratio,L1210 leukemia cells; 8.0 mg/kg,17%
same,ILS (increase life span),L1210 leukemia cells; 16.0 mg/kg,112%
same,Survived ratio,L1210 leukemia cells; 16.0 mg/kg,0%
same,ILS (increase life span),L1210 leukemia cells; 32.0 mg/kg,130%
same,Survived ratio,L1210 leukemia cells; 32.0 mg/kg,0%
same,ILS50 (50% increase life span dose),L1210 leukemia cells,3.4 mg/kg
"(trans-dl-1,2-diaminocyclohexane)-malonatoplatinum (II) [Comparative Compound a]",Water solubility,Water solubility,500 µg/mL
same,LD50 (50% lethal dose),50% lethal dose (LD50),244.9 mg/kg
same,ILS (increase life span),L1210 leukemia cells; 4.0 mg/kg,35%
same,Survived ratio,L1210 leukemia cells; 4.0 mg/kg,0%
same,ILS (increase life span),L1210 leukemia cells; 8.0 mg/kg,49%
same,Survived ratio,L1210 leukemia cells; 8.0 mg/kg,0%
same,ILS (increase life span),L1210 leukemia cells; 16.0 mg/kg,82%
same,Survived ratio,L1210 leukemia cells; 16.0 mg/kg,0%
same,ILS (increase life span),L1210 leukemia cells; 32.0 mg/kg,94%
same,Survived ratio,L1210 leukemia cells; 32.0 mg/kg,17%
same,ILS (increase life span),L1210 leukemia cells; 64.0 mg/kg,above 108%
same,Survived ratio,L1210 leukemia cells; 64.0 mg/kg,17%
same,ILS50 (50% increase life span dose),L1210 leukemia cells,7.1 mg/kg
